Measured values reported in PMC8909036 (Cells, 2022).

Columns and labels:
ΔN-HAB1 = molecular target: T1, ΔN-HAB1 (Arabidopsis thaliana, UniProt Q9CAJ0); assay: phosphatase turnover, […] nm, […] min; assay type: biochemical; details: 25 mM pNPP, 2 mM MnCl2, 25 mM Tris HCl pH 7.5
T1 sequence (Q9CAJ0 172-511 limits assumed): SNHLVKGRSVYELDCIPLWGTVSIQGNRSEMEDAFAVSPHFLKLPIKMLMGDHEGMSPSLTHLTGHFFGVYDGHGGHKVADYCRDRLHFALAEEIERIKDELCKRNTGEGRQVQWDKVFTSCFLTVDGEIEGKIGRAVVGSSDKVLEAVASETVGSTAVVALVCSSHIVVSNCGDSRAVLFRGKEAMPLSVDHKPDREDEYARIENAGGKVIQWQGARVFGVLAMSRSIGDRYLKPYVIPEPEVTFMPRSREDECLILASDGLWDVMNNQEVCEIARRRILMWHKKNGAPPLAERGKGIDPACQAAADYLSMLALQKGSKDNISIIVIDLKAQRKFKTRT

NbPYL1b = molecular target: T2, NbPYL1b (Nicotiana benthamiana, UniProt Z9Z2X8O5T5); assay: ligand-dependent inhibition of PP2C HAB1 by receptor, pNPP, […] nm; assay type: biochemical; details: 0.5 μM ΔN-HAB1, 1 or 2 μM NbPYL1b, 25 mM pNPP, 2 mM MnCl2, 25 mM Tris HCl pH 7.5; agonist, IC50 read on HAB1 activity
T2 construct: full ORF amplified from Nb genomic DNA (CDS 678 nt, 225 residues by count) in pETM11, His-tagged, E. coli BL21(DE3), Ni-NTA; dimer in gel filtration (apo); assayed with N-terminally truncated HAB1 (ΔN-HAB1); with Protein phosphatase 2C 16
T2 sequence (Z9Z2X8O5T5 1-225): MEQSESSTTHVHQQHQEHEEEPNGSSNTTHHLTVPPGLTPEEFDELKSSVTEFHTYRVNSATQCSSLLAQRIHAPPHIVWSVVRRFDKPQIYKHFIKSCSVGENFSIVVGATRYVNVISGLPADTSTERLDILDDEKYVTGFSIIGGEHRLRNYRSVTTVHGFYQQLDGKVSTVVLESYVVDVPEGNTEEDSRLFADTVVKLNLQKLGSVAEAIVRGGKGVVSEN
T2 sequence (Q9CAJ0 172-511 partner limits assumed): T1 sequence (Q9CAJ0 172-511 limits assumed)

| Compound | phosphatase turnover, 405 nm, 30 min (ΔN-HAB1) | IC50 (NbPYL1b) [µM] |
| --- | --- | --- |
| O=[N+]([O-])c1ccc(OP(=O)(O)O)cc1 [pNPP] | Phosphatase activity was measured using p-nitrophenyl phosphate (pNPP) as a substrate |  |
| Cc1ccc(CS(=O)(=O)Nc2ccc(C#N)c(C3CC3)c2)cc1 [CB] |  | 0.126 |
